In ChEMBL document CHEMBL3399966, “Isosteric replacements of the carboxylic acid of drug candidate VX-787: Effect of charge on antiviral potency and kinase activity of azaindole-based influenza PB2 inhibitors” (Bioorg Med Chem Lett, 2015):

How the values were obtained:
[1] = biological target: Serine/threonine-protein kinase PLK1 (Homo sapiens, UniProt P53350); experiment: Inhibition of PLK (unknown origin)
[2] = biological target: Phosphatidylinositol 4,5-bisphosphate 3-kinase catalytic subunit beta isoform (Homo sapiens, UniProt P42338); experiment: Inhibition of PI3Kbeta (unknown origin)
[3] = biological target: Mitogen-activated protein kinase 10 (Homo sapiens, UniProt P53779); experiment: Inhibition of JNK3 (unknown origin)
Sequence of Mitogen-activated protein kinase 10 (P53779 whole entry): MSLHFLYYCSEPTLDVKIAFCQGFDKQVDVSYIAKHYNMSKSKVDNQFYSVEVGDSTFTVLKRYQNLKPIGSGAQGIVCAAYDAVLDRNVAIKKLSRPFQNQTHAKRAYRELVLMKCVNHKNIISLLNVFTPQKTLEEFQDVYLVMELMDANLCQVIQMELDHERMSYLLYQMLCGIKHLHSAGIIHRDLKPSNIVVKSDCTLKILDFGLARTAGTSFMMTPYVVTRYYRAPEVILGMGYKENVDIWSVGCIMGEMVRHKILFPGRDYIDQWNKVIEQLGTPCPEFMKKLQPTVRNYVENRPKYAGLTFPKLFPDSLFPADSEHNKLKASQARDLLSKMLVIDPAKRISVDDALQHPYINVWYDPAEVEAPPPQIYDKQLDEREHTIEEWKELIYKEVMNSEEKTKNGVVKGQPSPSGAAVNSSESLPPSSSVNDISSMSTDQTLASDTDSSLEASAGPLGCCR

[4] = biological target: cAMP-dependent protein kinase catalytic subunit alpha (Homo sapiens, UniProt P17612); experiment: Inhibition of PKAa (unknown origin)
[5] = biological target: Tyrosine-protein kinase JAK2 (Homo sapiens, UniProt O60674); experiment: Inhibition of JAK2 (unknown origin)
Sequence of Tyrosine-protein kinase JAK2 (O60674 whole entry): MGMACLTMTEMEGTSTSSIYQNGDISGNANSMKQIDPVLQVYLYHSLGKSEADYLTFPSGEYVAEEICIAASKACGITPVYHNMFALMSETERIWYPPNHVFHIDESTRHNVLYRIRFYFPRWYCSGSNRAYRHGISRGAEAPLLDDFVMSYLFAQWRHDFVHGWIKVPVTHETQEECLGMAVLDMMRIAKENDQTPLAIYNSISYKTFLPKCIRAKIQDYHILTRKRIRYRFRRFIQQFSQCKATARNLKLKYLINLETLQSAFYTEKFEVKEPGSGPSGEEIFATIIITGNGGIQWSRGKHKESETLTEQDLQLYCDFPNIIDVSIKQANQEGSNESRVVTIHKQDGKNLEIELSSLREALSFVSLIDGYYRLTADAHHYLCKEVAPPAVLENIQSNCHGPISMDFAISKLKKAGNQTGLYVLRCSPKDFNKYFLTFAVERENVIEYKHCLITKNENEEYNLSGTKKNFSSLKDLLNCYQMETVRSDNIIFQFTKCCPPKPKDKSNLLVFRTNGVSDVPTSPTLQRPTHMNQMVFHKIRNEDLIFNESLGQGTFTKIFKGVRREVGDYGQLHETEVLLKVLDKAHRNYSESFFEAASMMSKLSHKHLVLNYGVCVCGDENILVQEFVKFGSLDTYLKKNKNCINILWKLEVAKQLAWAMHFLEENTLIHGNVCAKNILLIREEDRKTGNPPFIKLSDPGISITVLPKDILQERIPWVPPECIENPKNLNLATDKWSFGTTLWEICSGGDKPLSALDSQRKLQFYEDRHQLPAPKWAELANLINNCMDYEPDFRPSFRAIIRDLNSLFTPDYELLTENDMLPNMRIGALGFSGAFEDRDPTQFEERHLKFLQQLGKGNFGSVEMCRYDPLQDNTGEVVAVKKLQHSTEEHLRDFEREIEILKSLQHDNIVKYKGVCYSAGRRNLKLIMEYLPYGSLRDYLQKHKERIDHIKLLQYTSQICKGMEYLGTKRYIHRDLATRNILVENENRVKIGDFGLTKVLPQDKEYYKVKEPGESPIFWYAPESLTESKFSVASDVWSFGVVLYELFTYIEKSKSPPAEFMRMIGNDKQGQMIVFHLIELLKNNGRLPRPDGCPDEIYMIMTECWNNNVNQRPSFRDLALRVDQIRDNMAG

[6] = biological target: T1, Receptor-type tyrosine-protein kinase FLT3 (Homo sapiens, UniProt P36888); experiment: Inhibition of FLT3 (unknown origin)
T1 sequence (P36888 whole entry): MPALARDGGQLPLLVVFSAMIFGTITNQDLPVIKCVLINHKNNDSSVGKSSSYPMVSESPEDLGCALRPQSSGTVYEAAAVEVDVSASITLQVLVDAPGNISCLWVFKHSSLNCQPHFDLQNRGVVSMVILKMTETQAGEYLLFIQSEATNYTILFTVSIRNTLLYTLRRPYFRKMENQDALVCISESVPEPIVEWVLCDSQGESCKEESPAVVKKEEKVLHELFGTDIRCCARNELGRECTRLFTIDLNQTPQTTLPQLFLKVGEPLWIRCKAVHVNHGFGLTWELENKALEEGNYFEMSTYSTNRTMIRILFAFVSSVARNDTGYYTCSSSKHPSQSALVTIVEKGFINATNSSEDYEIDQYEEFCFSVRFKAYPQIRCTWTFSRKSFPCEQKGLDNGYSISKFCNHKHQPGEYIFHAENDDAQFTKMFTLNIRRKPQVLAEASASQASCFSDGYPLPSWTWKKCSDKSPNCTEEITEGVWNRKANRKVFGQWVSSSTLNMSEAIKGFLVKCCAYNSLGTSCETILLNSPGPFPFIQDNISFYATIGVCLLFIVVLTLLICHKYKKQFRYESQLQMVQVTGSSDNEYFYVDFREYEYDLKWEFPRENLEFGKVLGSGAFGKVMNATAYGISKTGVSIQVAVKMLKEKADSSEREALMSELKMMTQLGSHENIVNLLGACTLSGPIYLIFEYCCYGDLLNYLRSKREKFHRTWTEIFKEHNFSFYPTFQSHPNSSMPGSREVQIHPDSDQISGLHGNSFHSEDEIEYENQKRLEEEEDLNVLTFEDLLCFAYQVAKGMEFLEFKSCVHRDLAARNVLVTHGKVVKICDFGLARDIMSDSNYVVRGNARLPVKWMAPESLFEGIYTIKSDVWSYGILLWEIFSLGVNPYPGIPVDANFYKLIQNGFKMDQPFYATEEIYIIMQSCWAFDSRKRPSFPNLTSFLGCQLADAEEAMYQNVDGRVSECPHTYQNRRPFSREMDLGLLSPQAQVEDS

[7] = biological target: Rho-associated protein kinase (Homo sapiens, UniProt O75116+Q13464); experiment: Inhibition of ROCK (unknown origin); assay type: protein-complex assay
[8] = biological target: Hepatocyte growth factor receptor (Homo sapiens, UniProt P08581); experiment: Inhibition of MET (unknown origin)
[9] = tested on: Influenza A virus; experiment: Antiviral activity against influenza A virus A/PR/8/34 strain incubated with MDCK cells assessed as reduction of viral RNA level equal to 1% of control level after 72 hrs by branched DNA assay; assay type: functional, organism-based; conditions: A/Puerto Rico/8/1934(H1N1)
[10] = biological target: T2, Interleukin-1 receptor-associated kinase 4 (Homo sapiens, UniProt Q9NWZ3); experiment: Inhibition of IRAK4 (unknown origin)
T2 sequence (Q9NWZ3 whole entry): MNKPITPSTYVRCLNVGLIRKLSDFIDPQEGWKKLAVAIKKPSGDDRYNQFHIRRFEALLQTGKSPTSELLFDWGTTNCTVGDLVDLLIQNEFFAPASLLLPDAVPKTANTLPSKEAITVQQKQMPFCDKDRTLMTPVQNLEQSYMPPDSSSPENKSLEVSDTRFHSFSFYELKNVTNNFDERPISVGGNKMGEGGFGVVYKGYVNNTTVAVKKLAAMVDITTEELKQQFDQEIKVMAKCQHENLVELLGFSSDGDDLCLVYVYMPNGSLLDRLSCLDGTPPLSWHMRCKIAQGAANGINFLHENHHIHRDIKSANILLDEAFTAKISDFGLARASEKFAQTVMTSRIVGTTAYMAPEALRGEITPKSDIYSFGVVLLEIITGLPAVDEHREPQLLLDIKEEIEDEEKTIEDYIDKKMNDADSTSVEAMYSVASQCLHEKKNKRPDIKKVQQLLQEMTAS

[11] = biological target: Vascular endothelial growth factor receptor 2 (Homo sapiens, UniProt P35968); experiment: Inhibition of KDR (unknown origin)
[12] = biological target: Glycogen synthase kinase-3 (Homo sapiens, UniProt P49840+P49841); experiment: Inhibition of GSK3 (unknown origin); assay type: protein assay
[13] = tested on: Influenza A virus; experiment: Antiviral activity against Influenza A virus A/PR/8/34 strain incubated with MDCK cells assessed as cell protection after 72 hrs by phenotypic cell protection assay; assay type: functional, organism-based; conditions: A/Puerto Rico/8/1934(H1N1)
[14] = biological target: Phosphatidylinositol 4,5-bisphosphate 3-kinase catalytic subunit alpha isoform (Homo sapiens, UniProt P42336); experiment: Inhibition of PI3Kalpha (unknown origin)
Sequence of Phosphatidylinositol 4,5-bisphosphate 3-kinase catalytic subunit alpha isoform (P42336 whole entry, canonical isoform): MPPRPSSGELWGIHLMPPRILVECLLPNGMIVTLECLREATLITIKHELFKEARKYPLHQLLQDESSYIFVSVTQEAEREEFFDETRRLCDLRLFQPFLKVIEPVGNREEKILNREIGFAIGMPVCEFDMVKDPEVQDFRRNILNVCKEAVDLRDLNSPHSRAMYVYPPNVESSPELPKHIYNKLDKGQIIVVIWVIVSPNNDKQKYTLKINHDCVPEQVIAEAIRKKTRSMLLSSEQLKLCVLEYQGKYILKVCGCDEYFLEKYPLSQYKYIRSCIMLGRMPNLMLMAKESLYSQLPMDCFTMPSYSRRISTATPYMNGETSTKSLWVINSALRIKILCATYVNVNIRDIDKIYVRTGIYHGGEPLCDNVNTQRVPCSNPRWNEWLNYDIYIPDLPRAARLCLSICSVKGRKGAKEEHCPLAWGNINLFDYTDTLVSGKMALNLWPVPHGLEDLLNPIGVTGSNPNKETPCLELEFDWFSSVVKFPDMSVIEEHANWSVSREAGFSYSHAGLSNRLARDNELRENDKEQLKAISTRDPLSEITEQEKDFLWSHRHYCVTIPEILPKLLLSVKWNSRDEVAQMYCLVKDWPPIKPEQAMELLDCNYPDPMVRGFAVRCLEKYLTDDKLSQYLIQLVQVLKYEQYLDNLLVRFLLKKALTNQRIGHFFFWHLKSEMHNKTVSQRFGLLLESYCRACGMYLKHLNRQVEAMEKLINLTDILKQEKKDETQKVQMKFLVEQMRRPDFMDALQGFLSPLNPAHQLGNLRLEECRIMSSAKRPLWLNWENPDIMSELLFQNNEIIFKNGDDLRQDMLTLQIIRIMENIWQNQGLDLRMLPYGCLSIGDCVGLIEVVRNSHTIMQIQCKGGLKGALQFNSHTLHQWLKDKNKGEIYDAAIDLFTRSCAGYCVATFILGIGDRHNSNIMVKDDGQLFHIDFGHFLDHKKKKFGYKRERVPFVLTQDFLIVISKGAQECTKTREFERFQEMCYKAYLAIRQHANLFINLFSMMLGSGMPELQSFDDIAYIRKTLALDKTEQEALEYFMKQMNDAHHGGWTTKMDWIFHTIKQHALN

[15] = biological target: Phosphatidylinositol 4,5-bisphosphate 3-kinase catalytic subunit gamma isoform (Homo sapiens, UniProt P48736); experiment: Inhibition of PI3Kgamma (unknown origin)
Sequence of Phosphatidylinositol 4,5-bisphosphate 3-kinase catalytic subunit gamma isoform (P48736 whole entry, canonical isoform): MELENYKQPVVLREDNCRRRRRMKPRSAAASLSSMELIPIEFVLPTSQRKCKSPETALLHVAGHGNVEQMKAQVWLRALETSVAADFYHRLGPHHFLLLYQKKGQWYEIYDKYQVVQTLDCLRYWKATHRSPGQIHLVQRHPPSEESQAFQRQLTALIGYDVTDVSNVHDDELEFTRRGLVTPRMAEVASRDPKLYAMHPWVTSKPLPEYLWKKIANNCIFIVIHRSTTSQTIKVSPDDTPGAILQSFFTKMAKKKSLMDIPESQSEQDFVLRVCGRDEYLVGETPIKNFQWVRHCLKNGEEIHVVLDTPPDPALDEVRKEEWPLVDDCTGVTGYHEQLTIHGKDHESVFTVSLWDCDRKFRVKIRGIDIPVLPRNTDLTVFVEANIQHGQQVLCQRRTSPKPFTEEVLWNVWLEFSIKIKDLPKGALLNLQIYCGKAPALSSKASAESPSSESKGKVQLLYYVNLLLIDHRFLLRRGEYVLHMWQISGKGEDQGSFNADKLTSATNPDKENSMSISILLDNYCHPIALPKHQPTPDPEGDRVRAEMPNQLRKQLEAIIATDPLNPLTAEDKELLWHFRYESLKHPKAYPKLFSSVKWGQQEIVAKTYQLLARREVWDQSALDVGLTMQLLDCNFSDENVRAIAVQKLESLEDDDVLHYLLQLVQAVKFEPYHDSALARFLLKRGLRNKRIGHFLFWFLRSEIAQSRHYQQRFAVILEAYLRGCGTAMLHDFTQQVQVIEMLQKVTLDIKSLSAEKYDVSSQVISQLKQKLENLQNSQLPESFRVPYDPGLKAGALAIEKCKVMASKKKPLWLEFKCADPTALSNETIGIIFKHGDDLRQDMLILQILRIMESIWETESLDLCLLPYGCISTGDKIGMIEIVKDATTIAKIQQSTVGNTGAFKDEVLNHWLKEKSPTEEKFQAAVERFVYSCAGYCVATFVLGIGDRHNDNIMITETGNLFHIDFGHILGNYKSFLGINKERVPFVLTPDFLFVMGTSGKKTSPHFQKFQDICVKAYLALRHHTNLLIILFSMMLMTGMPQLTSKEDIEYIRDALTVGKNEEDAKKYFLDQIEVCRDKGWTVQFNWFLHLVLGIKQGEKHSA

[16] = biological target: T3, Phosphatidylinositol 4,5-bisphosphate 3-kinase catalytic subunit delta isoform (Homo sapiens, UniProt O00329); experiment: Inhibition of PI3Kdelta (unknown origin)
T3 sequence (O00329 whole entry): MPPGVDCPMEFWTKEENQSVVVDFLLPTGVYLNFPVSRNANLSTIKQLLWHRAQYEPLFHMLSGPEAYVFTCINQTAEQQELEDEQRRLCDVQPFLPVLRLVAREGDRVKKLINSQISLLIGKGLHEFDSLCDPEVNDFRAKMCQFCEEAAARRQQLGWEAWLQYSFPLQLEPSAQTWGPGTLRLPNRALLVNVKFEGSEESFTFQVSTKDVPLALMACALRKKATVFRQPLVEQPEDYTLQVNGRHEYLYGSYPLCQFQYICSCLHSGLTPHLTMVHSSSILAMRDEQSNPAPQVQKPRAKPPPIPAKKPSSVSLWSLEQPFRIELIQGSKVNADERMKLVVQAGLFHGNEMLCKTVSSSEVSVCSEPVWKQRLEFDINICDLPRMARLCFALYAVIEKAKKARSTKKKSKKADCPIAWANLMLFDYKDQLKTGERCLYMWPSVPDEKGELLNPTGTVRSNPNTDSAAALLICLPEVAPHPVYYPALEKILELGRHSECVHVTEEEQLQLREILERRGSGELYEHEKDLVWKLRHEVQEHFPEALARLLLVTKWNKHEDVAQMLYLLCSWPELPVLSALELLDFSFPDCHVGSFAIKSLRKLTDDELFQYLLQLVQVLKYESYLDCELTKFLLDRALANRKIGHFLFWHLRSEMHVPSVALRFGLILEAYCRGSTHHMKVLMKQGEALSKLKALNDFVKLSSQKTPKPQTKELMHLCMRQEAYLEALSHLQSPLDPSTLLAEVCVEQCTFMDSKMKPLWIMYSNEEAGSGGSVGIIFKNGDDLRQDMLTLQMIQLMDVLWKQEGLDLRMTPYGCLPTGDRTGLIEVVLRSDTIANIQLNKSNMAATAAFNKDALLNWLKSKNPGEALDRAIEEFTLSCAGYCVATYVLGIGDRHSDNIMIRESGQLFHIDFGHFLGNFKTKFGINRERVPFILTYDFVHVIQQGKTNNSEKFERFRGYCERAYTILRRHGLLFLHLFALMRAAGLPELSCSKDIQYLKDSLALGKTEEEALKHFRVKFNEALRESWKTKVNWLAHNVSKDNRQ

[17] = biological target: Cyclin-dependent kinase 2 (Homo sapiens, UniProt P24941); experiment: Inhibition of CDK2 (unknown origin)
[18] = biological target: Tyrosine-protein kinase SYK (Homo sapiens, UniProt P43405); experiment: Inhibition of SYK (unknown origin)
[19] = biological target: Proto-oncogene tyrosine-protein kinase Src (Homo sapiens, UniProt P12931); experiment: Inhibition of SRC (unknown origin)
Sequence of Proto-oncogene tyrosine-protein kinase Src (P12931 2-536 limits assumed): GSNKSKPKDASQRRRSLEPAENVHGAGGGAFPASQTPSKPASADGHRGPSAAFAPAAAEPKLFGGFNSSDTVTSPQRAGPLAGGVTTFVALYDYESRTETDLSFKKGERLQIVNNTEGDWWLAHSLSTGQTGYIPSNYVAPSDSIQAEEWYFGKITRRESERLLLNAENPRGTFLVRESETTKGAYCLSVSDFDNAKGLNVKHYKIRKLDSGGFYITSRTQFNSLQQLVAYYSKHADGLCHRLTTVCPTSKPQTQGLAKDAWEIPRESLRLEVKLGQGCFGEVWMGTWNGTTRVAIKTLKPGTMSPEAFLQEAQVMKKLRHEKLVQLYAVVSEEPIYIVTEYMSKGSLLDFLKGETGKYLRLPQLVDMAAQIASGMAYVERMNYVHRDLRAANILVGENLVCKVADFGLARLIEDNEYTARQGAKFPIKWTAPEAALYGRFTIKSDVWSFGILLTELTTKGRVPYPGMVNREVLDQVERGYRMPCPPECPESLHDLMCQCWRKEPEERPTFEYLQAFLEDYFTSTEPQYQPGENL

Sequence of Serine/threonine-protein kinase PLK1 (P53350 whole entry, canonical isoform): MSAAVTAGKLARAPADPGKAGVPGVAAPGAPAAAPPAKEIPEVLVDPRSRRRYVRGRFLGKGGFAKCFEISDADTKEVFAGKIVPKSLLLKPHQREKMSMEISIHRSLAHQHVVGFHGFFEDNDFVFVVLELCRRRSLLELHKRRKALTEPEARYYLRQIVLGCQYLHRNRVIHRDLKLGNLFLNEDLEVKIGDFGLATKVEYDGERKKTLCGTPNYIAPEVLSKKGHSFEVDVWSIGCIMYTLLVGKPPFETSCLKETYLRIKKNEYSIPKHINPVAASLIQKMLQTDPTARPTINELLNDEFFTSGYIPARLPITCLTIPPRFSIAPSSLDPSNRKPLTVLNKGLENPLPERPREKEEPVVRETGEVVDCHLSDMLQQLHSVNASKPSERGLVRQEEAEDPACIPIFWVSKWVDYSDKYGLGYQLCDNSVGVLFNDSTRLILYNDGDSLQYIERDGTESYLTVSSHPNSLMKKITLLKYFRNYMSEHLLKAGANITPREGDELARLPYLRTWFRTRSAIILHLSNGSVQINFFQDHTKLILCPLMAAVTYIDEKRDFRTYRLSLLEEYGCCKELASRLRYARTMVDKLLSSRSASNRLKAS

Compound	Ki [1]	Ki [2]	Ki [3]	Ki [4]	Ki [5]	Ki [6]	Ki [7]	Ki [8]	EC50 [9]	EC99 [9]	Ki [10]	Ki [11]	Ki [12]	IC50 [13]	Ki [14]	Ki [15]	Ki [16]	Ki [17]	Ki [18]	Ki [19]
Oc1cc([C@H]2C3CCC(CC3)[C@@H]2Nc2nc(-c3c[nH]c4ncc(F)cc34)ncc2F)[nH]n1 (mixture of isomers)	1.7 µM	> 4 µM	> 4 µM	> 4 µM	> 4 µM	4 µM	> 4 µM	> 4 µM	0.14 µM	0.76 µM	> 4 µM	> 4 µM	1.2 µM	0.16 µM	> 4 µM	> 4 µM	> 4 µM	> 4 µM	> 4 µM	> 4 µM
Oc1cc([C@H]2C3CCC(CC3)[C@@H]2Nc2nc(-c3c[nH]c4ncc(F)cc34)ncc2F)on1 (mixture of isomers)	> 4 µM	> 4 µM	> 4 µM	> 4 µM	> 4 µM	> 4 µM	> 4 µM	> 4 µM	0.002 µM	0.033 µM	> 4 µM	> 4 µM	1.6 µM	0.001 µM	1.3 µM	0.69 µM	> 4 µM	> 4 µM	> 4 µM	> 4 µM
O=P(O)(O)[C@H]1C2CCC(CC2)[C@@H]1Nc1nc(-c2c[nH]c3ncc(F)cc23)ncc1F (mixture of isomers)	> 4 µM	> 4 µM	> 4 µM	> 4 µM	> 4 µM	1.1 µM	> 4 µM	> 4 µM	0.051 µM	0.29 µM	> 4 µM	> 4 µM	> 4 µM	0.091 µM	> 4 µM	> 4 µM	> 4 µM	> 4 µM	> 4 µM	> 4 µM
OCC(O)[C@H]1C2CCC(CC2)[C@@H]1Nc1nc(-c2c[nH]c3ncc(F)cc23)ncc1F (mixture of isomers)	0.51 µM	2.5 µM	> 4 µM	0.23 µM	0.39 µM	0.16 µM	1.5 µM	> 4 µM	0.041 µM	0.18 µM	2.7 µM	2.4 µM	0.078 µM	0.068 µM	2.6 µM	0.71 µM	1.6 µM	> 4 µM	3.4 µM	3.5 µM
